Data on 12 compounds can be found in patent US11840499B2, “Biobased-fatty acid arginates” (priority 2020, dated 2023).

Data set [1] has as its system Gram-positive Listeria innocua (ATCC 33090). Description: Antimicrobial activity (MIC/MBC) against Listeria innocua. The class given is cell-based. As to the method:
(§1) Antimicrobial activity studies were performed using standard methods. For all compounds, at least 3 independent replicates of quadruplicate tests were conducted. The minimum inhibitory concentration (MIC) was determined as the lowest test compound concentration for which no color change (no active growth) occurred. Minimum bactericidal concentration (MBC) was determined by spreading 100 μl from each growth-negative well onto TSA and incubating at 37° C. for 24 h. MBC was the […] where no viable growth occurred.

The subject of data set [2] is Gram-negative Escherichia coli (ATCC 700728). Description: microbe, parasite or virus in culture. The class given is cell-based. Particulars: for MIC / MBC: E. coli; for MIC: lowest concentration with no color change (no active growth); for MBC: no viable growth on TSA, 37° C., 24 h. How it is done: as §1
Data set [3] in a line: Surfactant properties: surface tension by drop image method, CMC. The class given is physicochemical. Particulars: aqueous solution. As to the method: Samples of the analyte were weighed and dissolved in distilled water to make a 10 mM stock solution. The stock solution was then subsequently diluted to make 5 mM, 1 mM, 0.5 mM, 0.25 mM, 0.125 mM, and 0.0625 mM solutions. The series of solutions were used to measure the surface tension using a drop image method with a surface tension instrument. Measurement for each sample was done in triplicate and the average value was calculated. Critical micelle concentration (CMC) is the concentration above which micelles form in the surfactant solution.

The mark [4] stands for this setting: Escherichia coli, ATCC700728, read-out: MIC.
Where [5] appears, read: Escherichia coli, ATCC700728, read-out: MBC.
[6] abbreviates: L. innocua, lowest concentration with no color change (no active growth).
Setting [7] is: L. innocua, no viable growth on TSA, 37° C., 24 h.
Where [8] appears, read: Listeria innocua, ATCC33090, 24 h.

Like-named read-outs stand apart in the source and are kept apart here.

On to `CCCCCCCCCCCC(=O)N[C@@H](CCCNC(=N)N)C(=O)OCC.Cl` [Ethyl lauroyl arginate, ethyl-N^α-lauroyl-L-arginate HCl, reference compound], for which the MIC was found to be 7.3 µg/mL in data set [1] (Listeria innocua, ATCC33090, L. innocua, lowest concentration with no color change (no active growth), read-out: MIC) and 7.3 µg/mL in data set [2] (setting [4]). The MBC in data set [1] (Listeria innocua, ATCC33090, L. innocua, no viable growth on TSA, 37° C., 24 h, read-out: MBC) is 14.5 µg/mL; in data set [2] (setting [5]) it was 7.3 µg/mL.

`N=C(N)NCCC[C@H](N)C(=O)O` [L-arginine (commercial), L-arginine]: the MIC in data set [1] (setting [6]) is more than 232.7 ppm; in data set [1] (Listeria innocua, ATCC33090), more than 233 µg/mL; in data set [2] (setting [4]), more than 233 µg/mL. The MBC in data set [1] (setting [7]) is more than 232.7 ppm; in data set [1] (setting [8]) it was more than 233 µg/mL; in data set [2] (setting [5]), more than 233 µg/mL.

`CCOC(=O)[C@@H](N)CCCNC(=N)N.Cl.Cl` [L-arginine ethyl ester dihydrochloride]: the MIC in data set [1] (Listeria innocua, ATCC33090) was more than 233 µg/mL; in data set [2] (setting [4]), more than 233 µg/mL. The MBC in data set [1] (setting [8]) and in data set [2] (setting [5]) was more than 233 µg/mL in each case.

With `CCCCCCCC/C=C\CCCCCCCC(=O)O` [Oleic acid], the MIC in data set [1] (setting [6]) is more than 232.7 ppm; in data set [1] (Listeria innocua, ATCC33090), more than 233 µg/mL; in data set [2] (setting [4]), more than 233 µg/mL. For the same compound, the MBC in data set [1] (setting [7]) is more than 232.7 ppm; in data set [1] (setting [8]) it was more than 233 µg/mL; in data set [2] (setting [5]) it was more than 233 µg/mL.

As to `CCCCCCCC/C=C\CCCCCCCC(=O)N[C@@H](CCCNC(=N)N)C(=O)OCC` [Oleic arginate], the MIC was found to be 3.6 ppm in data set [1] (setting [6]) and 116.4 ppm in data set [2]. Besides, the figures for the MBC in data set [1] (setting [7]) and in data set [2] were 3.6 ppm and 116.4 ppm, respectively. Besides, the “antimicrobial activity (in words)” value in data set [2] (Escherichia coli (ATCC 700728)) is on record as “weak activity”.

With `CCCCCCCCCCCCOS(=O)(=O)[O-].[Na+]` [SDS], in data set [3], the “critical micelle concentration (CMC), compared to LAE” value is recorded as “much higher”. Moreover, the “surface tension level reached with increasing surfactant concentration” value in data set [3] (0.0625-10 mM) is 38 mN/m.

As for `CCCCCCCCCCCCCCCCCC(=O)N[C@@H](CCCNC(=N)N)C(=O)OCC` [Stearic arginate], the MIC is listed as 14.5 ppm in data set [1] (setting [6]) and more than 232.7 ppm in data set [2]. Besides, the values for the MBC in data set [1] (setting [7]) and in data set [2] were 29.1 ppm and more than 232.7 ppm, respectively.

Regarding Isooleic acid, the MIC in data set [1] (setting [6]) and in data set [2] was more than 232.7 ppm in each case. Further, the MBC in data set [1] (setting [7]) and in data set [2] was more than 232.7 ppm each time.

As for Isooleic arginate, the MIC was 1.8 ppm in data set [1] (setting [6]) and more than 232.7 ppm in data set [2]. In addition, the MBC in data set [1] (setting [7]) is reported as 1.8 ppm; in data set [2], more than 232.7 ppm.

With Isostearic arginate, the MIC in data set [1] (setting [6]) is given as 3.6 ppm; in data set [2], more than 232.7 ppm. Also, the MBC in data set [1] (setting [7]) is listed as 7.3 ppm; in data set [2], more than 232.7 ppm.

Regarding Oleic phenol arginate, the values for the MIC in data set [1] (setting [6]) and in data set [2] were 1.2 ppm and more than 232.7 ppm, respectively. The MBC in data set [1] (setting [7]) was 5.0 ppm; in data set [2], more than 232.7 ppm.

As for Soy thymol arginate, the MIC in data set [1] (setting [6]) was 3.6 ppm; in data set [2], more than 232.7 ppm. The MBC in data set [1] (setting [7]) is recorded as 14.5 ppm; in data set [2], more than 232.7 ppm.
